Source: patent US12171754B2, “Combinational uses of nitroxoline and its analogues with chemotherapies and immunotherapies in the treatment of cancers” (Jiangsu Yahong Meditech Co., Ltd., priority 2016, dated 2024)
Values joined by “and” are separate entries in the source; they are usually repeats but may differ in a detail not shown here. Equal values may be shown once. Read-outs that look alike come from different tables or passages of the source.

Key:
[1] = tested on: human bladder cancer cell line 5637; test: MTT assay, inhibition of cell growth (single drugs and combinations with NIT; CI by Chou's method); assay type: cell-based; conditions: for IC25 / IC75: 5637; for Average Fa: 96 hours
Description: (§1) The combinational studies of NIT and chemotherapies were conducted by mixing NIT with individual chemotherapies at five to seven concentration levels, with the medium concentration levels close to their IC50 values. The combinational indices (CIs) were calculated and plotted according to Ting-Chao Chou's method (19) to estimate the combinational effects, including synergism, addition and antagonism.
(§2) Compounds: NIT, carboplatin, paclitaxel, epirubicin and pirarubicin were purchased from suppliers, and were dissolved in the DMSO to stock solution and store in −20° C. Before use, the stock solutions were diluted to different concentrations of working solutions. The DMSO concentration in working solutions was less than 1%. All cancer cell lines were purchased from vendors.
(§3) An MTT assay was used as the test method. An appropriate amount of cells (2×10^3/100 μL) was seeded into 96-well plate and incubated at 37° C. in a CO2 incubator overnight for cell adhesion and adaptation. Cancer cells were also seeded in a separate 96-well plate (plate T0), 12 wells/cell line, to measure the OD value at time zero (T0). After overnight adaptation, 20 μL MTT reagent were added per well (final concentration 0.5 mg/mL) to plate T0 and incubated at 37° C. for 4 hours. The supernatant medium was pipetted out, and about 150 μL DMSO were added per well. The plate was read on a plate reader using 550 nm as the test wavelength and 630 nm as the reference wavelength to obtain the OD value at time zero (T0). After overnight adaptation, the test compounds and vehicle were added into the plate to treat the cells. The test compounds were tested at 6 concentrations in triplicate wells. The plate was incubated at 37° C. in a CO2 incubator for 48 h. A longer incubation time can be used. 20 μL MTT reagent were added per well and incubated at 37° C. for 4 h. the supernatant medium was pipetted out, and about 150 μL DMSO were added per well. The plate was read on a plate reader (TECAN, Infinite M200) using about […] as the test wavelength and about […] as the reference wavelength. Cell viability (%) was calculated in two ways: % Viability=[(T−B)/(C−B)]×100% % Viability=[(T−C0)/(C−C0)]×100%
(§4) T: Mean Absorbance of Treatment at various hours;
(§5) C: Mean Absorbance of negative Control at various hours;
(§6) B: Mean Absorbance of blank well (only culture medium) at various hours;
(§7) C0: Mean Absorbance of negative Control at 0 h.
(§8) The results are expressed as mean±SD. The IC50 was calculated by XLfit software. The test for each compound was independently repeated once.

[2] = tested on: human liver cancer cell line HepG2; test: as above; assay type: cell-based
Description: as §1, §2, §3, §4, §5, §6, §7, §8

MBT-2-Luc bladder cancer [3] = test: Oral NIT with intravesical MMC in orthotopic mouse MBT-2-Luc bladder cancer model; conditions: NIT 15 mg/kg Bid oral, MMC 1 mg/ml Q7d intravesical, single drug or actual observed value of combination; for Survival Proportion: end of the experiment (45 days)
Description: The tumor volume was analyzed by the Xenogen IVIS200 system following the indicated treatment. […] The tumor volume of each mouse was determined by region-of-interest analysis of total photons per second. Six mice were analyzed in each group.
To establish the orthotopic bladder cancer tumors, the mice were anesthetized by the intraperitoneal (i.p.) administration of ketamine/xylazine solution at a dose of 0.1 ml/10 g body weight (K113; Sigma-Aldrich Japan G.K., Tokyo, Japan). A 24-gauge Teflon intravenous catheter was subsequently inserted through the urethra into the bladder or prostate using an inert lubricant. In order to prepare the bladder for tumor implantation, a brief acid exposure, followed by alkaline neutralization, promoted a chemical lesion on the bladder wall, performed by the intravesical instillation of 8 μl 1 MOI silver nitrate. This led to the formation of an adequate and controlled diffuse bladder wall lesion. After 15 sec, the content was washed out by transurethral infusion of PBS. The first catheter was removed and a new 24-gauge catheter was inserted in the urethra for intravesical instillation of MBT-2-Luc cells (5×10^4 cells mixed with 0.1 ml PBS) and retained for 1.5 h by stitches. Every 10 days, tumor imaging was performed following i.p. administration of luciferin using bioluminescence technology (Xenogen IVIS200 system; Xenogen Corporation, Hopkinton, Mass., USA).
For the NIT and MMC combination, the mice carrying orthotopic bladder cancer tumors were randomly divided into four groups: control (PBS), NIT, MMC, and the combination of NIT and MMC.
(§9) The mice received i.p. injections of luciferin, and the luciferase expression in the tumors was measured by the Xenogen IVIS200 System.
Additivity was determined using the fractional product concept or Bliss Independence model: Exy=Ex+Ey−(ExEy), where EXY is the additive effect of the 2 compounds x and y as calculated by the product of the individual effect of the 2 compounds, Ex and Ey. Synergy was established when the actual observed tumor inhibition value was greater than the expected tumor inhibition value determined by the Bliss Independence model (20).

MBT-2-Luc bladder cancer [4] = tested on: MBT-2-Luc bladder cancer; design: concentration or dose not given beside the values; conditions: mouse, in vivo
MBT-2-Luc bladder cancer [5] = test: Oral NIT with intraperitoneal anti-PD-1 antibody in orthotopic mouse MBT-2-Luc bladder cancer model
Description: The tumor volume of each mouse was determined by region-of-interest analysis of total photons per second. Five mice were analyzed in each group.
To establish the orthotopic bladder cancer tumors, the mice were anesthetized by the intraperitoneal (i.p.) administration of ketamine/xylazine solution at a dose of 0.1 ml/10 g body weight (K113; Sigma-Aldrich Japan G.K., Tokyo, Japan). A 24-gauge Teflon intravenous catheter was subsequently inserted through the urethra into the bladder or prostate using an inert lubricant. In order to prepare the bladder for tumor implantation, a brief acid exposure, followed by alkaline neutralization, promoted a chemical lesion on the bladder wall, performed by the intravesical instillation of 8 μl 1 MOI silver nitrate. This led to the formation of an adequate and controlled diffuse bladder wall lesion. After 15 sec, the content was washed out by transurethral infusion of PBS. […]
as §9
Additivity was determined using the fractional product concept or Bliss Independence model: Exy=Ex+Ey−(ExEy), where EXY is the additive effect of the 2 compounds x and y as calculated by the product of the individual effect of the 2 compounds, Ex and Ey.

RM-9-Luc prostate cancer = test: Oral NIT with intraperitoneal anti-PD-1 antibody in orthotopic mouse RM-9-Luc prostate cancer model; assay type: in vivo
Description: Eight mice were analyzed for each group.
A low abdominal transverse incision was made, and the bilateral dorsal lobes of prostate were exposed. Following the trypsinization of RM-9-Luc cells, 5.0×10^3 cells in 10 μl of Hanks' balanced salt solution were injected using a new 24-gauge catheter directly into the right dorsal lobe of the prostate. A clearly recognizable bleb within the injected prostatic lobe was considered as a sign of a technically satisfactory injection. The abdominal wound was closed with stainless steel clips (Autoclip; Becton Dickinson Co., Sparks, Md.).

[6] = Homo sapiens, inhibition of cell growth, 5637 (Table 9), read-out: IC50
[7] = Homo sapiens, cell line 5637, read-out: IC50 for inhibition of cell growth

## N.N.O=C([O-])C1(C(=O)[O-])CCC1.[Pt+2] [Carboplatin, carboplatin]
[1]; Carbo 0.5 μg/ml, 120 hours
  Inhibition Rates: 31.5%
[1]; Carbo 1 μg/ml, 120 hours
  Inhibition Rates: 53.7%
[1]; Carbo 2 μg/ml, 120 hours
  Inhibition Rates: 69.9%
[1]; Carbo 4 μg/ml, 120 hours
  Inhibition Rates: 88.1%
[1]; Carbo 8 μg/ml, 120 hours
  Inhibition Rates: 91.5%
[1]; cell line 5637
  IC50 for inhibition of cell growth: 0.917 µg/mL
[2]; Carbo 4 μg/ml, 120 hours
  Inhibition Rates: 38.9%
[2]; Carbo 8 μg/ml, 120 hours
  Inhibition Rates: 70.7%
[2]; Carbo 16 μg/ml, 120 hours
  Inhibition Rates: 85.2%
[2]; Carbo 32 μg/ml, 120 hours
  Inhibition Rates: 89.1%
[2]; Carbo 64 μg/ml, 120 hours
  Inhibition Rates: 93.0%
[2]; Carbo 128 μg/ml, 120 hours
  Inhibition Rates: 93.9%
[2]; cell line HepG2
  IC50 for inhibition of cell growth: 3.687 µg/mL

## COc1cccc2c1C(=O)c1c(O)c3c(c(O)c1C2=O)C[C@@](O)(C(=O)CO)C[C@@H]3O[C@H]1C[C@H](N)[C@@H](O)[C@H](C)O1 [Epirubicin, epirubicin]
[1]; [6]
  IC50: 0.0452 µg/mL
[1]; inhibition of cell growth
  IC25: 0.03497 µg/mL
  IC75: 0.06393 µg/mL

## CO[C@@]12[C@H](COC(N)=O)C3=C(C(=O)C(C)=C(N)C3=O)N1C[C@@H]1N[C@@H]12 [Mitomycin C, mitomycin C]
[1]; NIT 0, Mitomycin C 3.13 (units not given)
  Average Fa: 1.6%
[1]; NIT 0, Mitomycin C 12.5 (units not given)
  Average Fa: 27.7%
[1]; NIT 0, Mitomycin C 50 (units not given)
  Average Fa: 77.9%
[1]; NIT 0, Mitomycin C 200 (units not given)
  Average Fa: 79.4%
[1]; inhibition of cell growth
  IC25: 0.04836 µg/mL
  IC75: 0.53662 µg/mL
[1]; inhibition of cell growth, 5637 (Table 9)
  IC50: 0.15253 µg/mL
MBT-2-Luc bladder cancer [3]
  Tumor Growth Inhibition: 0.56
  Survival Proportion: 0.57

## O=[N+]([O-])c1ccc(O)c2ncccc12 [NIT, Nitroxoline]
[1]; Homo sapiens, NIT 0.25 μg/ml, 120 hours, read-out: Inhibition Rates
  inhibition at 0.25 µg/mL: 18%
[1]; Homo sapiens, NIT 0.5 μg/ml, 120 hours, read-out: Inhibition Rates
  inhibition at 0.5 µg/mL: 52%
[1]; Homo sapiens, NIT 1 μg/ml, 120 hours, read-out: Inhibition Rates
  inhibition at 1 µg/mL: 79.9%
[1]; Homo sapiens, NIT 2 μg/ml, 120 hours, read-out: Inhibition Rates
  inhibition at 2 µg/mL: 92.3%
[1]; Homo sapiens, NIT 4 μg/ml, 120 hours, read-out: Inhibition Rates
  inhibition at 4 µg/mL: 95.5%
[1]; [7]
  IC50: 0.517 µg/mL
[1]; NIT 625, Mitomycin C 0 (units not given)
  Average Fa: −7.2%
[1]; NIT 1250, Mitomycin C 0 (units not given)
  Average Fa: −3.8%
[1]; NIT 2500, Mitomycin C 0 (units not given)
  Average Fa: 23.3%
[1]; NIT 5000, Mitomycin C 0 (units not given)
  Average Fa: 74.3%
[1]; NIT 10000, Mitomycin C 0 (units not given)
  Average Fa: 94.0%
[2]; Homo sapiens, HepG2, NIT 0.5 μg/ml, 120 hours, read-out: Inhibition Rates
  inhibition at 0.5 µg/mL: 3.2%
[2]; Homo sapiens, HepG2, NIT 1 μg/ml, 120 hours, read-out: Inhibition Rates
  inhibition at 1 µg/mL: 21.7%
[2]; Homo sapiens, HepG2, NIT 2 μg/ml, 120 hours, read-out: Inhibition Rates
  inhibition at 2 µg/mL: 80.3%
[2]; Homo sapiens, HepG2, NIT 4 μg/ml, 120 hours, read-out: Inhibition Rates
  inhibition at 4 µg/mL: 90.5%
[2]; Homo sapiens, HepG2, NIT 8 μg/ml, 120 hours, read-out: Inhibition Rates
  inhibition at 8 µg/mL: 93.5%
[2]; Homo sapiens, HepG2, NIT 16 μg/ml, 120 hours, read-out: Inhibition Rates
  inhibition at 16 µg/mL: 95.3%
[2]; Homo sapiens, cell line HepG2
  IC50: 1.86 µg/mL
MBT-2-Luc bladder cancer [3]
  Tumor Growth Inhibition: 0.33
  Survival Proportion: 0.33
MBT-2-Luc bladder cancer [4]
  Survival Proportion: 0.4
  Tumor Growth Inhibition: 0.52 and 0.35
MBT-2-Luc bladder cancer [5]; NIT 15 mg/kg bid p.o., anti-PD-1 10 mg/kg q5d intraperitoneal, single drug or actual observed value of combination
  Tumor Growth Inhibition: 0.31
MBT-2-Luc bladder cancer [5]; NIT 15 mg/kg oral, anti-PD-1 10 mg/kg intraperitoneal, FIG. 11B
  tumor inhibition rate: 31%
RM-9-Luc prostate cancer; NIT 15 mg/kg bid p.o., anti-PD-1 10 mg/kg q4d intraperitoneal, single drug or actual observed value of combination
  Tumor Weight Proportion: 0.37
RM-9-Luc prostate cancer; tumor volume, FIG. 12B, NIT 15 mg/kg oral, anti-PD-1 10 mg/kg intraperitoneal
  tumor growth inhibition rate: 52%
RM-9-Luc prostate cancer; tumor volume, NIT 15 mg/kg bid p.o., anti-PD-1 10 mg/kg q4d intraperitoneal, single drug or actual observed value of combination
  Tumor Growth Inhibition: 0.52
RM-9-Luc prostate cancer; tumor weight, FIG. 12D, NIT 15 mg/kg oral, anti-PD-1 10 mg/kg intraperitoneal
  tumor inhibition by tumor weight: 37%

## CC(=O)O[C@H]1C(=O)[C@@]2(C)[C@H]([C@H](OC(=O)c3ccccc3)[C@]3(O)C[C@H](OC(=O)[C@H](O)[C@@H](NC(=O)c4ccccc4)c4ccccc4)C(C)=C1C3(C)C)[C@]1(OC(C)=O)CO[C@@H]1C[C@@H]2O [Paclitaxel, paclitaxel]
[1]; [7]
  IC50: 0.000289 µg/mL
[1]; Taxol 0.125 ng/ml, 112 hours
  Inhibition Rates: 11.9%
[1]; Taxol 0.25 ng/ml, 112 hours
  Inhibition Rates: 47.6%
[1]; Taxol 0.5 ng/ml, 112 hours
  Inhibition Rates: 84.3%
[1]; Taxol 1 ng/ml, 112 hours
  Inhibition Rates: 90.3%
[1]; Taxol 2 ng/ml, 112 hours
  Inhibition Rates: 96.8%
[2]; Homo sapiens, cell line HepG2
  IC50: 0.0025 µg/mL
[2]; Taxol 0.5 ng/ml, 112 hours
  Inhibition Rates: 5.8%
[2]; Taxol 1 ng/ml, 112 hours
  Inhibition Rates: 14.0%
[2]; Taxol 2 ng/ml, 112 hours
  Inhibition Rates: 47.5%
[2]; Taxol 4 ng/ml, 112 hours
  Inhibition Rates: 75.8%
[2]; Taxol 8 ng/ml, 112 hours
  Inhibition Rates: 90.4%
[2]; Taxol 16 ng/ml, 112 hours
  Inhibition Rates: 92.7%

## COc1cccc2c1C(=O)c1c(O)c3c(c(O)c1C2=O)C[C@@](O)(C(=O)CO)C[C@@H]3O[C@H]1C[C@H](N)[C@H](O[C@@H]2CCCCO2)[C@H](C)O1 [Pirarubicin, pirarubicin]
[1]; [6]
  IC50: 0.143 µg/mL
[1]; inhibition of cell growth
  IC25: 0.09658 µg/mL
  IC75: 0.21958 µg/mL
